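48-hour exposure; five concentrations; linearly interpolated endpoints. GI50 = concentration required for 50% inhibition of growth. TGI: concentration producing complete growth inhibition.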
What was measured:
Assay in all cases: growth of human tumour cells (NCI), 48 h
HS 578T breast = tested on: HS 578T breast
RPMI-8226 leukemia = tested on: RPMI-8226 leukemia
TK-10 renal = tested on: TK-10 renal
NCI-H226 lung = tested on: NCI-H226 lung
HT29 colon = tested on: HT29 colon
UO-31 renal = tested on: UO-31 renal
OVCAR-3 ovarian = tested on: OVCAR-3 ovarian
OVCAR-5 ovarian = tested on: OVCAR-5 ovarian
KM12 colon = tested on: KM12 colon
SK-MEL-5 melanoma = tested on: SK-MEL-5 melanoma
SF-539 CNS = tested on: SF-539 CNS
HL-60(TB) leukemia = tested on: HL-60(TB) leukemia
MALME-3M melanoma = tested on: MALME-3M melanoma
ACHN renal = tested on: ACHN renal
SK-MEL-2 melanoma = tested on: SK-MEL-2 melanoma
UACC-257 melanoma = tested on: UACC-257 melanoma
HCT-116 colon = tested on: HCT-116 colon
U251 CNS = tested on: U251 CNS
A498 renal = tested on: A498 renal
HCT-15 colon = tested on: HCT-15 colon
K-562 leukemia = tested on: K-562 leukemia
786-0 renal = tested on: 786-0 renal
MDA-MB-231 breast = tested on: MDA-MB-231 breast
HCC-2998 colon = tested on: HCC-2998 colon
SK-MEL-28 melanoma = tested on: SK-MEL-28 melanoma
LOX IMVI melanoma = tested on: LOX IMVI melanoma
MDA-MB-435 = tested on: MDA-MB-435
NCI-H522 lung = tested on: NCI-H522 lung
MOLT-4 leukemia = tested on: MOLT-4 leukemia
M14 melanoma = tested on: M14 melanoma
SF-268 CNS = tested on: SF-268 CNS
BT-549 breast = tested on: BT-549 breast
SNB-19 CNS = tested on: SNB-19 CNS
NCI-H460 lung = tested on: NCI-H460 lung
NCI-H23 lung = tested on: NCI-H23 lung
CAKI-1 renal = tested on: CAKI-1 renal
RXF 393 renal = tested on: RXF 393 renal
SR leukemia = tested on: SR leukemia
UACC-62 melanoma = tested on: UACC-62 melanoma
CCRF-CEM leukemia = tested on: CCRF-CEM leukemia
MCF7 breast = tested on: MCF7 breast
HOP-62 NSCLC = tested on: HOP-62 NSCLC
NCI/ADR-RES ovarian = tested on: NCI/ADR-RES ovarian
SNB-75 CNS = tested on: SNB-75 CNS
SW-620 colon = tested on: SW-620 colon
SN12C renal = tested on: SN12C renal
SF-295 CNS = tested on: SF-295 CNS
IGROV1 ovarian = tested on: IGROV1 ovarian
OVCAR-8 ovarian = tested on: OVCAR-8 ovarian
A549 NSCLC = tested on: A549 NSCLC
SK-OV-3 ovarian = tested on: SK-OV-3 ovarian
T-47D breast = tested on: T-47D breast
EKVX NSCLC = tested on: EKVX NSCLC
COLO 205 colon = tested on: COLO 205 colon
OVCAR-4 ovarian = tested on: OVCAR-4 ovarian
PC-3 prostate = tested on: PC-3 prostate
DU-145 prostate = tested on: DU-145 prostate

CCOCC1(COCC)CCC(c2[nH]ncc2CN(C)CCNC)CC1
GI50 (HS 578T breast): > 100 µM
TGI (HS 578T breast): > 100 µM
GI50 (RPMI-8226 leukemia): 19.8 µM
TGI (RPMI-8226 leukemia): > 100 µM
GI50 (TK-10 renal): > 100 µM
TGI (TK-10 renal): > 100 µM
GI50 (NCI-H226 lung): > 100 µM
TGI (NCI-H226 lung): > 100 µM
GI50 (HT29 colon): 33.3 µM
TGI (HT29 colon): > 100 µM
GI50 (UO-31 renal): > 100 µM
TGI (UO-31 renal): > 100 µM
GI50 (OVCAR-3 ovarian): > 100 µM
TGI (OVCAR-3 ovarian): > 100 µM
GI50 (OVCAR-5 ovarian): > 100 µM
TGI (OVCAR-5 ovarian): > 100 µM
GI50 (KM12 colon): > 100 µM
TGI (KM12 colon): > 100 µM
GI50 (SK-MEL-5 melanoma): > 100 µM
TGI (SK-MEL-5 melanoma): > 100 µM
GI50 (SF-539 CNS): > 100 µM
TGI (SF-539 CNS): > 100 µM
GI50 (HL-60(TB) leukemia): > 100 µM
TGI (HL-60(TB) leukemia): > 100 µM
GI50 (MALME-3M melanoma): > 100 µM
TGI (MALME-3M melanoma): > 100 µM
GI50 (ACHN renal): > 100 µM
TGI (ACHN renal): > 100 µM
GI50 (SK-MEL-2 melanoma): > 100 µM
TGI (SK-MEL-2 melanoma): > 100 µM
GI50 (UACC-257 melanoma): > 100 µM
TGI (UACC-257 melanoma): > 100 µM
GI50 (HCT-116 colon): > 100 µM
TGI (HCT-116 colon): > 100 µM
GI50 (U251 CNS): > 100 µM
TGI (U251 CNS): > 100 µM
GI50 (A498 renal): 8.25 µM
TGI (A498 renal): > 100 µM
GI50 (HCT-15 colon): > 100 µM
TGI (HCT-15 colon): > 100 µM
GI50 (K-562 leukemia): 28.8 µM
TGI (K-562 leukemia): > 100 µM
GI50 (786-0 renal): > 100 µM
TGI (786-0 renal): > 100 µM
GI50 (MDA-MB-231 breast): > 100 µM
TGI (MDA-MB-231 breast): > 100 µM
GI50 (HCC-2998 colon): > 100 µM
TGI (HCC-2998 colon): > 100 µM
GI50 (SK-MEL-28 melanoma): > 100 µM
TGI (SK-MEL-28 melanoma): > 100 µM
GI50 (LOX IMVI melanoma): > 100 µM
TGI (LOX IMVI melanoma): > 100 µM
GI50 (MDA-MB-435): > 100 µM
TGI (MDA-MB-435): > 100 µM
GI50 (NCI-H522 lung): > 100 µM
TGI (NCI-H522 lung): > 100 µM
GI50 (MOLT-4 leukemia): > 100 µM
TGI (MOLT-4 leukemia): > 100 µM
GI50 (M14 melanoma): > 100 µM
TGI (M14 melanoma): > 100 µM
GI50 (SF-268 CNS): > 100 µM
TGI (SF-268 CNS): > 100 µM
GI50 (BT-549 breast): > 100 µM
TGI (BT-549 breast): > 100 µM
GI50 (SNB-19 CNS): > 100 µM
TGI (SNB-19 CNS): > 100 µM
GI50 (NCI-H460 lung): > 100 µM
TGI (NCI-H460 lung): > 100 µM
GI50 (NCI-H23 lung): > 100 µM
TGI (NCI-H23 lung): > 100 µM
GI50 (CAKI-1 renal): > 100 µM
TGI (CAKI-1 renal): > 100 µM
GI50 (RXF 393 renal): 65.2 µM
TGI (RXF 393 renal): > 100 µM
GI50 (SR leukemia): 23.7 µM
TGI (SR leukemia): > 100 µM
GI50 (UACC-62 melanoma): > 100 µM
TGI (UACC-62 melanoma): > 100 µM
GI50 (CCRF-CEM leukemia): > 100 µM
TGI (CCRF-CEM leukemia): > 100 µM
GI50 (MCF7 breast): > 100 µM
TGI (MCF7 breast): > 100 µM
GI50 (HOP-62 NSCLC): > 100 µM
TGI (HOP-62 NSCLC): > 100 µM
GI50 (NCI/ADR-RES ovarian): > 100 µM
TGI (NCI/ADR-RES ovarian): > 100 µM
GI50 (SNB-75 CNS): 41.4 µM
TGI (SNB-75 CNS): > 100 µM
GI50 (SW-620 colon): > 100 µM
TGI (SW-620 colon): > 100 µM
GI50 (SN12C renal): > 100 µM
TGI (SN12C renal): > 100 µM
GI50 (SF-295 CNS): > 100 µM
TGI (SF-295 CNS): > 100 µM
GI50 (IGROV1 ovarian): > 100 µM
TGI (IGROV1 ovarian): > 100 µM
GI50 (OVCAR-8 ovarian): > 100 µM
TGI (OVCAR-8 ovarian): > 100 µM
GI50 (A549 NSCLC): > 100 µM
TGI (A549 NSCLC): > 100 µM
GI50 (SK-OV-3 ovarian): > 100 µM
TGI (SK-OV-3 ovarian): > 100 µM
GI50 (T-47D breast): > 100 µM
TGI (T-47D breast): > 100 µM
GI50 (EKVX NSCLC): > 100 µM
TGI (EKVX NSCLC): > 100 µM
GI50 (COLO 205 colon): > 100 µM
TGI (COLO 205 colon): > 100 µM
GI50 (OVCAR-4 ovarian): > 100 µM
TGI (OVCAR-4 ovarian): > 100 µM
GI50 (PC-3 prostate): 59.4 µM
TGI (PC-3 prostate): > 100 µM
GI50 (DU-145 prostate): > 100 µM
TGI (DU-145 prostate): > 100 µM

From PubChem BioAssay (NCI)
